US4751217A, “Physiologically active substances named SEN-366” (Nippon Shinyaku Co., Ltd., priority 1984, dated 1988)
Converted amounts (≈) assume the structure as drawn. Blank lines part the entries; values can stand above or below the compound they belong to.

Columns and labels:
Format in all cases: cell-based
[1] = test system: platelet aggregation (collagen); assay: Inhibitory action against platelet aggregation, inducer collagen; conditions: for IC50 Collagen 10 μg/ml: Table 1, rabbit PRP; for IC50: Oryctolagus cuniculus, Platelet, collagen 10 μg/ml, rabbit PRP
Procedure: (§1) Inhibitory Action against Platelet Aggregation:
(§2) (1) Materials and Method:
(§3) The sample is tested after dissolved in dimethyl sulfoxide. The preparation is conducted so as to make the final concentration of the solvent 1%. Dimethyl sulfoxide of the same concentration is used as a control. As to inducers for platelet aggregation, ADP (final concentration: 5 μm), AA (arachidonic acid) (final concentration: 150 μM) and collagen (final concentration: 10 μg/ml) are used.
(§4) (2) Preparation of platelet:
Blood is taken from total neck artery of male rabbits of 2.0-2.5 kg body weight. […] The precipitate is further centrifuged at 1600×g for 10 minutes and the resulting supernatant liquid is used as plasma with poor platelet (hereinafter abbreviated as PPP).
(§5) (3) Method for Measuring Aggregation Power:
(§6) A measuring apparatus for platelet aggregation is used and the changes in absorbancy by the aggregation with an elapse of time are recorded.
(§7) Thus, 200 microliters of PRP is taken, its difference between PPP is adjusted to a certain value, then 25 microliters of control solution or test solution is added, the mixture is stirred (1000 rpm) for 1 minutes, 25 microliters of aggregation inducer is added, and the changes in absorbancy are recorded. The inhibitory ratio is calculated from the following expression from the maximum aggregation ratio of the control (A in %) and that of the test solution (B in %): [formula]
as §3, with “μM),” for “μm),”
(§8) Blood is taken from total neck artery of male rabbits of 2.0-2.5 kg body weight. To the blood is added 1/10 volume of 3.8% citric acid solution, the mixture is gently stirred, centrifuged 1300×g for 2 minutes, and the resulting supernatant liquid is used as plasma with abundant platelet (hereinafter abbreviated as PRP). The precipitate is further centrifuged at 1600×g for 10 minutes and the resulting supernatant liquid is used as plasma with poor platelet (hereinafter abbreviated as PPP).
as §7, with “minute,” for “minutes,”

[2] = test system: platelet aggregation (ADP); assay: Inhibitory action against platelet aggregation, inducer ADP; conditions: for IC50: Oryctolagus cuniculus, Platelet, ADP 5 μM, rabbit PRP; for IC50 ADP 5 μM: Table 1, rabbit PRP
Procedure: as §1, §2, §3, §4
as §8, with “sodium citrate” for “citric acid”
as §5, §6, §7
(§9) Inhibitory ratios with varied test solution concentrations are calculated and the IC50 (50% inhibitory concentration) is calculated therefrom.
as §3, with “μM),” for “μm),”
as §8
as §7, with “minute,” for “minutes,”

[3] = test system: platelet aggregation (AA); assay: Inhibitory action against platelet aggregation, inducer arachidonic acid (AA); conditions: for IC50: Oryctolagus cuniculus, Platelet, AA 150 μM, rabbit PRP; for IC50 AA 150 μM: Table 1, rabbit PRP
Procedure: as §1, §2, §3, §4
as §8, with “sodium citrate” for “citric acid”
as §5, §6, §7, §9
as §3, with “μM),” for “μm),”
as §8
as §7, with “minute,” for “minutes,”

Compound: CC(=O)OC1CCC(OC2CCC(OC3C=CC(=O)C(C)O3)C(C)O2)C(C)O1 (stereo not drawn) [SEN-366-A1]
IC50 Collagen 10 μg/ml ([1]; listed as A1): < 0.1 µg/mL | IC50 ([2]; Table 1): 0.22 µg/mL (≈ 0.552 µM) | IC50 ([3]; Table 1): 1.2 µg/mL (≈ 3.01 µM)

Compound: CC(=O)OC1CCC(OC2CCC(OC3CCC(=O)C(C)O3)C(C)O2)C(C)O1 (stereo not drawn) [SEN-366-A2]
IC50 ([1]; Table 1): 0.54 µg/mL (≈ 1.35 µM) | IC50 ADP 5 μM ([2]; listed as A2): 1.6 µg/mL (≈ 4 µM) | IC50 ([3]; Table 1): 6 µg/mL (≈ 15 µM)

Compound: CC(=O)OC1CCC(OC2CCC(OC3C=CC(=O)C(C)O3)C(C)O2)C(C)O1 (stereo not drawn) [SEN-366-A3]
IC50 Collagen 10 μg/ml ([1]; listed as A3): 0.47 µg/mL (≈ 1.18 µM) | IC50 ADP 5 μM ([2]; listed as A3): 0.44 µg/mL (≈ 1.1 µM) | IC50 AA 150 μM ([3]; listed as A3): 1.6 µg/mL (≈ 4.02 µM)

Compound: CC(=O)OC1CCC(OC2CCC(OC3CCC(=O)C(C)O3)C(C)O2)C(C)O1 (stereo not drawn) [SEN-366-A4]
IC50 Collagen 10 μg/ml ([1]; listed as A4): 0.27 µg/mL (≈ 0.674 µM) | IC50 ADP 5 μM ([2]; listed as A4): > 10 µg/mL | IC50 AA 150 μM ([3]; listed as A4): 5.4 µg/mL (≈ 13.5 µM)

Compound: CC1OC(OC2CCC(OC3CCC(OC(=O)c4ccccc4)OC3C)OC2C)C=CC1=O (stereo not drawn) [SEN-366-B1]
IC50 ([1]; Table 1): 0.16 µg/mL (≈ 0.347 µM) | IC50 ([2]; Table 1): 1.1 µg/mL (≈ 2.39 µM) | IC50 ([3]; Table 1): 0.32 µg/mL (≈ 0.695 µM)

Compound: CC1OC(OC2CCC(OC3CCC(OC(=O)c4ccccc4)OC3C)OC2C)CCC1=O (stereo not drawn) [SEN-366-B2]
IC50 ([1]; Table 1): 1.7 µg/mL (≈ 3.68 µM) | IC50 ([2]; Table 1): 5.7 µg/mL (≈ 12.3 µM) | IC50 ([3]; Table 1): 1.6 µg/mL (≈ 3.46 µM)

The next lines start with the values.

IC50 Collagen 10 μg/ml ([1]; listed as B3): 0.17 µg/mL (≈ 0.369 µM) | IC50 ADP 5 μM ([2]; listed as B3): 1.0 µg/mL (≈ 2.17 µM) | IC50 AA 150 μM ([3]; listed as B3): 0.55 µg/mL (≈ 1.19 µM)
Compound: CC1OC(OC2CCC(OC3CCC(OC(=O)c4ccccc4)OC3C)OC2C)C=CC1=O (stereo not drawn) [SEN-366-B3]

IC50 Collagen 10 μg/ml ([1]; listed as B4): 2.9 µg/mL (≈ 6.27 µM) | IC50 ADP 5 μM ([2]; listed as B4): 6.5 µg/mL (≈ 14.1 µM) | IC50 AA 150 μM ([3]; listed as B4): 1.2 µg/mL (≈ 2.59 µM)
Compound: CC1OC(OC2CCC(OC3CCC(OC(=O)c4ccccc4)OC3C)OC2C)CCC1=O (stereo not drawn) [SEN-366-B4]

IC50 ([1]; Table 1): 0.17 µg/mL (≈ 0.399 µM) | IC50 ADP 5 μM ([2]; listed as BT1): 1.1 µg/mL (≈ 2.58 µM) | IC50 AA 150 μM ([3]; listed as BT1): 1.55 µg/mL (≈ 3.63 µM)
Compound: CCCC(=O)OC1CCC(OC2CCC(OC3C=CC(=O)C(C)O3)C(C)O2)C(C)O1 (stereo not drawn) [SEN-366-BT1]

IC50 Collagen 10 μg/ml ([1]; listed as BT2): 0.53 µg/mL (≈ 1.24 µM) | IC50 ADP 5 μM ([2]; listed as BT2): 1.35 µg/mL (≈ 3.15 µM) | IC50 AA 150 μM ([3]; listed as BT2): 2.1 µg/mL (≈ 4.9 µM)
Compound: CCCC(=O)OC1CCC(OC2CCC(OC3CCC(=O)C(C)O3)C(C)O2)C(C)O1 (stereo not drawn) [SEN-366-BT2]

IC50 Collagen 10 μg/ml ([1]; listed as BT3): 0.16 µg/mL (≈ 0.375 µM) | IC50 ADP 5 μM ([2]; listed as BT3): 0.47 µg/mL (≈ 1.1 µM) | IC50 AA 150 μM ([3]; listed as BT3): 0.64 µg/mL (≈ 1.5 µM)
Compound: CCCC(=O)OC1CCC(OC2CCC(OC3C=CC(=O)C(C)O3)C(C)O2)C(C)O1 (stereo not drawn) [SEN-366-BT3]

IC50 Collagen 10 μg/ml ([1]; listed as BT4): 1.6 µg/mL (≈ 3.73 µM) | IC50 ADP 5 μM ([2]; listed as BT4): 5.3 µg/mL (≈ 12.4 µM) | IC50 AA 150 μM ([3]; listed as BT4): 5.7 µg/mL (≈ 13.3 µM)
Compound: CCCC(=O)OC1CCC(OC2CCC(OC3CCC(=O)C(C)O3)C(C)O2)C(C)O1 (stereo not drawn) [SEN-366-BT4]

IC50 ([1]; Table 2): 0.06 µg/mL (≈ 0.121 µM) | IC50 ([2]; Table 2): 0.3 µg/mL (≈ 0.606 µM) | IC50 ([3]; Table 2): 1.1 µg/mL (≈ 2.22 µM)
Compound: CC1OC(OC2CCC(OC3CCC(OC(=O)c4ccc(Cl)cc4)OC3C)OC2C)C=CC1=O (stereo not drawn) [SEN-366-CB1]
